The source of these data is patent publication US3989746A, “Substituted naphthyl anthranilic acids” (Ikeda Mohando Co., Ltd., priority 1972, dated 1976).

One series deals with Carragheenin foot edema. As to the kind of experiment: Carragheenin foot edema. The class given is in vivo, rats (male, Wister type). To be noted: Rattus norvegicus; 100 mg/Kg oral, 1 h before carragheenin; foot volume 3 h after injection; read-out: Anti-Inflammatory Effect Control Ratio, Carragheenin Foot Edema. As to the method: a. Carragheenin food edema
The test was conducted according to the method of C. […] Groups of rats (male rats of the Wister type having a body weight of 140-170 g), each group consisting of 5 to 11 rats, were caused to abstain from food for 16 hours, and a 4% gum arabic suspension of a test compound was orally administered to the rats in an amount of 100 mg/Kg. of the test compounds. Immediately, rats were allowed to drink 5 ml of purified water. […] After 3 hours had passed from the injection, the volume of the right foot was measured again to determine the increase of the volume of the right foot. In control groups, only a 4% gum arabic liquor free of a test compound was orally administered, and subsequent procedures were conducted similarly to determine the increase of the volume of the right foot. The carragheenin foot edema control ratio was calculated according to the following formula: [formula] wherein C indicates the foot volume increase in the control group and D indicates the foot volume increase in the test compound-administered group.

A further series deals with Ultraviolet erythema. As to the kind of experiment: Ultraviolet erythema. The class given is in vivo, guinea pigs (male, Hartley type). Particulars: Cavia porcellus, light or radiation study; 10 mg/Kg oral, 1 h before irradiation; read 3 h after irradiation; read-out: Anti-Inflammatory Effect Control Ratio, Ultraviolet Erythema. As to the method: The test was conducted according to a modification of the method of C. […] Groups of guinea pigs (male guinea pigs of the Hartley type having a body weight of 300 to 450 g), each group consisting of 5 to 10 guinea pigs, were employed for the test. Hairs were removed from backs of the guinea pigs by an electric hair-clipper and a depilatory agent. The guinea pigs were caused to abstain from food for 18 to 19 hours, and a test compound was orally administered in an amount of 10 mg/Kg in the form suspended in a 4% gum arabic liquor. In the case of control groups, only a 4% gum arabic liquor was administered. An adhesive plaster according to the Japanese pharmacopoeia, on which three small holes having a diameter of 5 mm were opened, was applied to the hair-removed portion of the back. […] When 3 hours had passed from the irradiation, the degree of the formation of erythema was determined. One point was given to the guinea pig on which a definite round erythema was formed, a point of 0.5 was given to the guinea pig on which formation of erythema was observed but its contour was not definite, and a point of 0 was given to the guinea pig on which no erythema was formed. Total points were calculated in both the test compound-administered group and the control group, and the control ratio was calculated from these total points. [formula]

For a further series, the system named is Adjuvant arthritis. As to the kind of experiment: Adjuvant arthritis. In kind it is in vivo, rats (female, Wister type). Particulars: Rattus norvegicus, 552 h; 9 mg/Kg per day oral for 25 days; foot volume on 23rd day from adjuvant injection; read-out: Anti-Inflammatory Effect Control Ratio, Adjuvant Arthritis. As to the method:
With respect to the foregoing compounds, anti-inflammatory effects against carragheenin foot edema, ultraviolet erythema and adjuvant arthritis were tested by using rate according to the following methods to obtain results shown below.
The test was conducted according to a modification of the method of B. B. Newbould (Brit. J. Pharmacol., 21, 127 (1963)). Groups of female rats of the Wister type having a body weight of 180 - 240 g, each group consisting of 4 to 8 rats, were tested. 0.05 ml of an adjuvant (formed by suspending 5 mg of dead tuberculous bacillus, Aoyama B strain, in 1 ml of fluid paraffin according to the Japanese pharmacopoeia) was hypodermically injected in the right foot heel of each rat. A test compound was orally administered in a dosage of 9 mg/Kg per day in the form suspended in a 5% gum arabic liquor continuously for 25 days from one day before the injection of the adjuvant. In the case of the control group, only a 5% gum arabic liquor was continuously administered in the same manner. The volume of the right foot was measured 1 day before the injection of the adjuvant and on the 23rd day from the injection of the adjuvant with respect to each group. Thus, the increase of the foot volume was calculated in either the test compound-administered group or the control group, and the ratio of control of the adjuvant arthritis was calculated according to the following formula: [formula] in which C is the increase of the volume of the right foot in the control group and D indicates the increase of the volume of the right foot in the test compound-administered rat group.

Another series deals with inflammatory pain. As to the kind of experiment: Analgesic effect on inflammatory pain (modified Randall and Selitto). In kind it is in vivo, rats (male, Wister type). Particulars: 100 mg/Kg oral, 1 hour before carragheenin; pain measured 3 hours after injection. How it is done:
Groups of male rats of the Wister type having a body weight of about 150 g were tested, each group consisting of 5 rats. The rats were caused to abstain from food overnight, and 0.05 ml of a 1% carragheenin solution was hypodermically injected into the right hind leg of each rat. […] The test compound was orally administered in a dosage of 100 mg/Kg 1 hour before the injection of carragheenin. [formula]

Series [1] is described as follows: in vivo. Particulars: mouse, in vivo, po. How it is done:
(§1) With respect to the foregoing test compounds, the acute toxicity was examined by employing mice according to the following method.
(§2) Groups of male mice of the dd type having a body weight of 18 to 22 g, each, group consisting of 5 mice, were tested to determine the acute toxicity. The test compound was orally administered in a dosage indicated in Table 3a in the form suspended in 5% gum arabic liquor. The determination was conducted 7 days after the administration. Further, the LD50 values were calculated according to the method of Lichfield-Wilcoxon.

The next series concerns male mice. As to the kind of experiment: in vivo. To be noted: 7 days. As to the method: as §1, §2
Series [2] in a line: in vivo. To be noted: rat, po.

Where only a bound is given, the exact number is not on record here.

For the compound `O=C(O)c1ccccc1Nc1cccc(C(F)(F)F)c1` [Compound F, flufenamic acid, reference compound], the inhibition in vivo at 100 mg/kg in the series with Carragheenin foot edema stood at 60.7%. The inhibition in vivo at 10 mg/kg with Ultraviolet erythema was 60%. Besides, the inhibition in vivo at 9 mg/kg in the series with Adjuvant arthritis amounted to 72.4%. In the series on inflammatory pain, the “Analgesic Coefficient” value turned out to be 1.42. For the same compound, the median lethal dose (LD50) (in general, the dose at which mortality reaches 50%) at 168 h in the series “in vivo [1]” is 545 mg/kg. Moreover, the “Number of Dead Mice/Number of Mice Tested” value in the series on male mice (1 g/kg oral) and in the series with male mice (2 g/kg oral) was 5 / 5 in each case. The compound further registered an LD50 in the series “in vivo [2]” of 270 mg/kg.
In the case of `O=C(O)c1ccccc1Nc1c(Cl)cc(Cl)c2ccccc12` [Compound 2, N-(2,4-dichloro-1-naphthyl)anthranilic acid], in the series on Carragheenin foot edema, the inhibition in vivo at 100 mg/kg stood at 27%. Further, in the series on Ultraviolet erythema, the inhibition in vivo at 10 mg/kg stood at 68.9%. In addition, the inhibition in vivo at 9 mg/kg in the series on Adjuvant arthritis was 53.5%. Moreover, the “Analgesic Coefficient” value in the series with inflammatory pain is given as 1.70. Besides, the median lethal dose (LD50) at 168 h in the series “in vivo [1]” is above 12000 mg/kg. The “Number of Dead Mice/Number of Mice Tested” value with male mice (1 g/kg oral), in the series with male mice (2 g/kg oral), in the series with male mice (3 g/kg oral) and with male mice (4 g/kg oral) was 0 / 5 each time. For the same compound, in “in vivo [2]”, the median lethal dose (LD50) came to 8500 mg/kg.
`O=C(O)c1ccccc1Nc1ccc(Cl)c2ccccc12` [Compound 1, n-(4-chloro-1-naphthyl)anthranilic acid]: the inhibition in vivo at 100 mg/kg with Carragheenin foot edema was found to be 25.7%. Also, the inhibition in vivo at 10 mg/kg in the series on Ultraviolet erythema is 38%. The inhibition in vivo at 9 mg/kg with Adjuvant arthritis was determined as 7.5%. Also, the “Analgesic Coefficient” value in the series on inflammatory pain is 1.36. This compound displayed a median lethal dose (LD50) at 168 h in “in vivo [1]” above 12000 mg/kg. Moreover, the “Number of Dead Mice/Number of Mice Tested” value in the series on male mice (1 g/kg oral) was 0 / 5; in the series with male mice (2 g/kg oral) it was 0 / 5; in the series on male mice (3 g/kg oral), 0 / 5; in the series on male mice (4 g/kg oral), 3 / 5. Moreover, the 50% lethal dose (LD50) in the series “in vivo [2]” is above 10000 mg/kg.
